The record followed here is US20050080113A1, “Medicinal compositions” (priority 2001, published 2005).

For orientation: melting point means the temperature of the solid-liquid transition. Turning to `CCC(=O)Nc1cc(-c2sc(C(C)OC(=O)c3ccccc3)nc2-c2cccc(Cl)c2)ccn1` (stereo not shown) [H 102-6, 1 [4 (3 chlorophenyl)-5-(2 propionylamino-4 pyridyl)-1,3 thiazol-2 yl]ethyl benzoate], the melting point is 124 to 127 °C.

Consider `CC(=O)Nc1cc(-c2sc(C(C)OC(=O)c3ccccc3)nc2-c2cccc(Cl)c2)ccn1` (stereo not shown) [H 103-1, 1 [5 (2 acetylamino-4-pyridyl)-4 (3 chlorophenyl)-1,3 thiazol-2 yl]ethyl benzoate], for which the melting point lay in the range of 152 to 154 °C.

The molecule `CCOC(=O)Cc1nc(-c2cccc(Cl)c2)c(-c2ccnc(NC(C)=O)c2)s1` [H 103-2, ethyl [5 (2 acetylamino-4-pyridyl)-4 (3 chlorophenyl)-1,3 thiazol-2 yl]acetate] came in with a melting point of 99 to 100 °C.

Turning to `CCC(=O)Nc1cc(-c2sc(C(C)O)nc2-c2cccc(C)c2)ccn1` (stereo not shown) [H 104, N-[4 [2 (1 hydroxyethyl)-4 (3 methylphenyl)-1,3 thiazol-5 yl]-2 pyridyl]propionamide], the melting point was in the range of 115 to 116 °C.

As to `CCC(=O)Nc1cc(-c2sc(C(C)O)nc2-c2cccc(Cl)c2)ccn1` (stereo not shown) [H 105, N-[4 [4 (3 chlorophenyl)-2-(1 hydroxyethyl)-1,3 thiazol-5 yl]-2 pyridyl]propionamide], the melting point is 131 to 132 °C.

`CCC(=O)Nc1cc(-c2sc(C(C)=O)nc2-c2cccc(C)c2)ccn1` [H 106, N-[4 [2 acetyl-4 (3 methylphenyl)-1,3 thiazol-5 yl]-2-pyridyl]propionamide] returned a melting point of 121 to 123 °C.

In turn, `CCC(=O)Nc1cc(-c2sc(C(C)=O)nc2-c2cccc(Cl)c2)ccn1` [H 107, N-[4 [2 acetyl-4 (3-chlorophenyl)-1,3 thiazol-5 yl]-2 pyridyl]propionamide] registered a melting point of 115 to 117 °C.

`CCNC(=O)Nc1cc(-c2sc(CC)nc2-c2cccc(C)c2)ccn1` [H 108, N-ethyl-N′-[4 [2 ethyl-4 (3 methylphenyl)-1,3 thiazol-5 yl]-2-pyridyl]urea] registered a melting point of 160 to 162 °C.

In turn, `CCNC(=O)Nc1cc(-c2sc(CC)nc2-c2cccc(Cl)c2)ccn1` [H 109, N-[4 [4 (3 chlorophenyl)-2-ethyl-1,3 thiazol-5 yl]-2 pyridyl]-N′-ethyl-urea] had a melting point of 177 to 180 °C.

In turn, `CC(=O)Nc1cc(-c2sc(C(C)OC(=O)c3ccccc3)nc2-c2cccc(C)c2)ccn1` (stereo not shown) [H 110, 1 [5 (2 acetylamino-4-pyridyl)-4 (3 methylphenyl)-1,3 thiazol-2 yl]ethyl benzoate] had a melting point of 110 to 113 °C.

As to `CC(=O)Nc1cc(-c2sc(C(C)O)nc2-c2cccc(C)c2)ccn1` (stereo not shown) [H 111-1, N-[4 [2 (1 hydroxyethyl)-4-(3 methylphenyl)-1,3 thiazol-5 yl]-2 pyridyl]acetamide], the melting point is 99 to 102 °C.

For `CC(=O)Nc1cc(-c2sc(C(C)O)nc2-c2cccc(Cl)c2)ccn1` (stereo not shown) [H 111-2, N-[4 [4 (3 chlorophenyl)-2-(1 hydroxyethyl)-1,3 thiazol-5 yl]-2 pyridyl]acetamide], the melting point fell in the range of 142 to 145 °C.

For `CC(=O)Nc1cc(-c2sc(C(C)=O)nc2-c2cccc(Cl)c2)ccn1` [H 112, N-[4 [2 acetyl-4 (3-chlorophenyl)-1,3 thiazol-5 yl]-2 pyridyl]acetamide], the melting point was 180 to 183 °C.

With `CSCc1nc(-c2cccc(C)c2)c(-c2ccnc(N)c2)s1` [H 113-1, 4 [4 (3 methylphenyl)-2-(methylthio)methyl-1,3 thiazol-5 yl]-2 pyridylamine], the melting point was in the range of 113 to 114 °C.

In turn, `Cc1cccc(-c2nc(C(C)(F)F)sc2-c2ccnc(N)c2)c1` [H 113-2, 4 [2 (1,1 difluoroethyl)-4 (3 methylphenyl)-1,3 thiazol-5 yl]-2 pyridylamine] yielded a melting point of 140 to 141 °C.

`CCc1nc(-c2cccc(C)c2)c(-c2ccnc(NC(=O)c3ccsc3)c2)s1` [L 39-1, N-[4 [2 ethyl-4 (3-methylphenyl)-1,3 thiazol-5 yl]-2 pyridyl]-3-thiophenecarboxamide] showed a melting point of 99 to 101 °C.
